# What was measured:
# [1] = Stability constant of Sc(III) complex by 1H and 45Sc NMR batch samples and pH-potentiometric titration; pSc calculation; type: physicochemical; conditions: 0.15 M NaCl, 37 °C
# Procedure: The stability constant of the Sc(DO3AM-NI) complex was assessed by ^1H and ^45Sc-NMR studies using samples prepared in the 0.055–0.195 M acid concentration range. […] Absence of protonation and the presence of a ternary hydroxydo species formation with KScL•OH = 10.88(5) were detected at our experimental conditions. The NMR samples contained 3.32 mM ligand, ScCl3 and a constant ionic strength of 0.15 M NaCl. The samples were thermostated at 37 °C, and their ^1H- and ^45Sc-NMR spectra were recorded after 60 days. In order to ensure that the equilibrium in the samples was attained, the ^1H and ^45Sc-NMR measurements were repeated again 90 days later. The spectra were practically identical with the spectra recorded at 60 days (Figures S4 and S5). As expected, the thermodynamic stability constant of the Sc(DO3AM-NI) complex (log KScL = 22.36(4)) was considerably lower than those of Sc(III) complexes formed with DOTA, DTPA or AAZTA ligands (Table 1). A moderate decrease in terms of thermodynamic stability constants was already observed for the complexes of DO3A-monamides formed with Gd(III) ions in comparison to the stability of parent Gd(DOTA)^− chelate. Despite the lower stability constant of the complex, the Sc(III) ion was complexed completely around pH = 2.0 (in a millimolar concentration range, see Figure 2). However, it might be misleading to directly compare the stability constants of the complexes formed by ligands of different basicity (as it depends on the basicity of the ligand); therefore, we calculated and compared the pSc values (which could be treated as conditional constants) for the complexes shown in Table 1 by taking the protonation constants of ligands, the stability constants of the complex species present in solution and the hydrolysis of the Sc(III) ion (according to Ref. [23]: log βSc(OH) = −4.3, log βSc(OH)2 = −9.7, log βSc(OH)3 = −16.1, log βSc(OH)4 = −26.0 and log βSc2(OH)4 = −6.0) into account.
# The equilibrium measurements were performed at constant ionic strength maintained by 0.15 M NaCl at 37 °C. For determining the protonation constants of DO3AM-NI, two parallel pH-potentiometric titrations were performed with 0.1611 M NaOH in a 5.00 cm^3 sample containing the ligand at the concentration of 2.76 mM. The stability constant of Sc(DO3AM-NI) was assessed by ^1H and ^45Sc NMR in 0.7 mL “batch” samples containing the metal and the ligand at 3.32 mM and different concentrations of strong acid (0.05–0.20 M) aged 90 days (see below). The formation of protonated and ternary hydroxydo complex species was probed by pH-potentiometric titration by titrating the preformed complex (at a concentration of 1.95 mM) with standardized NaOH solution. For the calculation of the logKMH-1L value, the VNaOH–pH data used were obtained in the pH range 1.68–11.85. The pH-potentiometric titrations were carried out with a Metrohm 785 DMP Titrino titration workstation with the use of a Metrohm-6.0233.100-combined electrode calibrated via a two-point calibration routine using KH-phthalate (pH = 4.005) and borax (pH = 9.177) buffers. The titrated samples were stirred with a magnetic stirrer, and N2 gas was bubbled through the solutions to avoid the effect of CO2. For the calculation of [H^+] from the measured pH values, the method proposed by Irving et al. was applied. For this, a 0.01M HCl solution was titrated with the standardized NaOH solution in the presence of 0.15 M NaCl ionic strength at 37 °C. The differences between the measured (pHread) and calculated pH (-log[H^+]) values were used to obtain the equilibrium H^+ concentration from the pHmeas values during the titrations. […] For the calculation of the equilibrium constants, the PSEQUAD program was used.
# ^1H- and ^45Sc-NMR measurements (400 MHz and 97 MHz, respectively) were performed with a Bruker DRX 400 (9.4 T) spectrometer equipped with a Bruker VT-1000 thermocontroller and a BB inverse z-gradient probe (5 mm). […]
# [2] = Formation rate of Sc(DO3AM-NI) at acidic pH followed by 1H and 45Sc NMR; type: physicochemical; conditions: pH = 1.52, 25 °C, 3.80 mM ligand, 4.90 mM ScCl3
# Procedure: This is promising for the labeling studies, yet it also underlines that the so-called “batch-method” must be applied in very acidic samples for the determination of the stability constant of the Sc(DO3AM-NI) chelate.
# ^1H- and ^45Sc-NMR measurements (400 MHz and 97 MHz, respectively) were performed with a Bruker DRX 400 (9.4 T) spectrometer equipped with a Bruker VT-1000 thermocontroller and a BB inverse z-gradient probe (5 mm). The kinetic experiments were performed at 25 °C, whereas the equilibrium studies were performed at 37 °C in aqueous solutions using D2O (in capillary) for locking. Typical parameters of ^45Sc-NMR measurements used were pulse length p1 = 15.6 μs (90°), relaxation delay d1 = 0.1 s and 128 scans. The formation reaction of the Sc(DO3AM-NI) complex was followed by ^1H- and ^45Sc-NMR spectroscopy in a sample containing 3.80 mM ligand and 4.90 mM ScCl3 with a total acid concentration corresponding to a pH of 1.54. […] Actually, the intensity of the ^45Sc-NMR signal of Sc(III)aq could precisely be measured while that of the broad signal corresponding to the Sc(DO3AM-NI) complex could not. […] The molar integral values of the ^45Sc-NMR signal of Sc(III)aq were determined by recording the ^45Sc-NMR spectra of a 50 mM ScCl3 solution containing 0.015 M HCl as a reference sample. […]
smiles,measurement,setting,value
O=C([O-])CN1CCN(CC(=O)[O-])CCN(CC(=O)NCCn2ccnc2[N+](=O)[O-])CCN(CC(=O)[O-])CC1.[Sc+3] [Sc(DO3AM-NI)],log KScL•OH (ternary hydroxydo species),[1],10.88(5)
same,log KSc•L (stability constant of Sc(III) complex),[1],22.36(4)
same,pH around which the Sc(III) ion is complexed completely,[1]; millimolar concentration range,~2.0
same,time for complex formation to reach equilibrium,[2],about twelve

# Source: publication PMC9228955, “Synthesis, Physicochemical, Labeling and In Vivo Characterization of ^44Sc-Labeled DO3AM-NI as a Hypoxia-Sensitive PET Probe” (Pharmaceuticals, 2022)
